Measured values: PubChem BioAssay AID248 (DTP/NCI, 2004)
Toxic doses and inconclusive results are not listed. Cut-off read from the data, not from the text of the source: active = T/C of 150% or more; inactive = T/C below 125%.

Test system: L1210 leukemia ip in BDF1 mice, survival T/C
Test: NCI In Vivo Anticancer Drug Screen. Data for tumor model L1210 Leukemia (intraperitoneal) in B6D2F1 (BDF1) mice
Settings: endpoint: mean survival time, higher = longer survival
Summary of the method: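 Transplantable tumor model; survival measured in treated vs vehicle control mice. Value = treated/control.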

[1] = dose: 100.0 mg/kg/injection, schedule: Q01DX009 (ip), vehicle: Klucel (hydroxypropylcellulose) (HPC)
[2] = dose: 100.0 mg/kg/injection, schedule: Q04DX003 (ip), vehicle: Klucel (hydroxypropylcellulose) (HPC)
[3] = dose: 200.0 mg/kg/injection, schedule: Q01DX009 (ip), vehicle: Klucel (hydroxypropylcellulose) (HPC)
[4] = dose: 200.0 mg/kg/injection, schedule: Q04DX003 (ip), vehicle: Klucel (hydroxypropylcellulose) (HPC)
[5] = dose: 400.0 mg/kg/injection, schedule: Q01DX009 (ip), vehicle: Klucel (hydroxypropylcellulose) (HPC)
[6] = dose: 400.0 mg/kg/injection, schedule: Q04DX003 (ip), vehicle: Klucel (hydroxypropylcellulose) (HPC)
[7] = dose: 25.0 mg/kg/injection, schedule: Q04DX002 (ip), vehicle: saline with Tween-80
[8] = dose: 100.0 mg/kg/injection, schedule: Q04DX003 (ip), vehicle: other
[9] = dose: 100.0 mg/kg/injection, schedule: Q04DX003 (ip), vehicle: saline with Tween-80
[10] = dose: 200.0 mg/kg/injection, schedule: Q04DX003 (ip), vehicle: other
[11] = dose: 400.0 mg/kg/injection, schedule: Q04DX003 (ip), vehicle: other
[12] = dose: 5.0 mg/kg/injection, schedule: Q01DX001 (ip), vehicle: saline
[13] = dose: 10.0 mg/kg/injection, schedule: Q01DX001 (ip), vehicle: saline

Measured: T/C

CCN(CC)C(=S)[S][Sb]([S]C(=S)N(CC)CC)[c]1ccccc1
inactive: dose: 100.0 mg/kg/injection, schedule: Q01DX001 (ip), vehicle: other 112 % of control | dose: 200.0 mg/kg/injection, schedule: Q01DX001 (ip), vehicle: other 89 % of control

Nc1ccc2nc(NCCO)c3ccccc3c2c1
inactive: [1] 107 % of control | [2] 104 % of control | [3] 114 % of control | [4] 104 % of control | [5] 88 % of control | [6] 104 % of control

c1cc[c]([Sn]([c]2ccccc2)([c]2ccccc2)[n]2cncn2)cc1
inactive: dose: 6.25 mg/kg/injection, schedule: Q04DX002 (ip), vehicle: saline with Tween-80 101 % of control | dose: 12.5 mg/kg/injection, schedule: Q04DX002 (ip), vehicle: saline with Tween-80 93 % of control | [7] 112 % of control

O=c1[nH]cc(S(=O)(=O)Nc2ccccc2)c(=O)[nH]1
inactive: dose: 25.0 mg/kg/injection, schedule: Q01DX001 (ip), vehicle: saline with Tween-80 106 % of control | dose: 50.0 mg/kg/injection, schedule: Q01DX001 (ip), vehicle: saline with Tween-80 103 % of control | dose: 100.0 mg/kg/injection, schedule: Q01DX001 (ip), vehicle: saline with Tween-80 103 % of control

Clc1nc(N2CC2)nc(N2CC2)c1Br
inactive: dose: 0.2 mg/kg/injection, schedule: Q01DX Z (ip), vehicle: methylcellulose (MC) 88 % of control | dose: 0.5 mg/kg/injection, schedule: Q01DX Z (ip), vehicle: methylcellulose (MC) 104 % of control

CC(=O)c1cccc([N+](=O)[O-])c1
inactive: dose: 100.0 mg/kg/injection, schedule: Q01DX009 (ip), vehicle: other 91 % of control | [8] 102 % of control | [9] 105 % of control | dose: 200.0 mg/kg/injection, schedule: Q01DX009 (ip), vehicle: other 105 % of control | [10] 100 % of control | dose: 200.0 mg/kg/injection, schedule: Q04DX003 (ip), vehicle: saline with Tween-80 106 % of control | [11] 94 % of control | dose: 400.0 mg/kg/injection, schedule: Q04DX003 (ip), vehicle: saline with Tween-80 108 % of control

CSc1ncc2ncn(C3OC(CO)C(O)C3O)c2n1 (stereo not drawn)
inactive: dose: 100.0 mg/kg/injection, schedule: Q01DX001 (ip), vehicle: carboxymethylcellulose (CMC) 108 % of control | [1] 91 % of control | [8] 110 % of control | dose: 200.0 mg/kg/injection, schedule: Q01DX001 (ip), vehicle: carboxymethylcellulose (CMC) 102 % of control | [3] 98 % of control | [10] 95 % of control | dose: 400.0 mg/kg/injection, schedule: Q01DX001 (ip), vehicle: carboxymethylcellulose (CMC) 98 % of control | [5] 89 % of control | [11] 100 % of control

N/N=C(\c1ccccc1)c1ccccn1
inactive: dose: 55.0 mg/kg/injection, schedule: Q01DX Z (ip), vehicle: methylcellulose (MC) 103 % of control | dose: 83.0 mg/kg/injection, schedule: Q01DX Z (ip), vehicle: methylcellulose (MC) 97 % of control | dose: 125.0 mg/kg/injection, schedule: Q01DX Z (ip), vehicle: methylcellulose (MC) 90 % of control

CCOP(=O)(OCC)O/N=C(/C)c1cccc([N+](=O)[O-])c1
inactive: [12] 100 % of control | [13] 97 % of control

OC(c1ccccc1)c1ccccn1 (stereo not drawn)
inactive: dose: 100.0 mg/kg/injection, schedule: Q04DX003 (ip), vehicle: saline 92 % of control | dose: 200.0 mg/kg/injection, schedule: Q04DX003 (ip), vehicle: saline 115 % of control | dose: 400.0 mg/kg/injection, schedule: Q04DX003 (ip), vehicle: saline 101 % of control

NCCc1ccc(OCc2ccccc2)c(OCc2ccccc2)c1
inactive: dose: 12.5 mg/kg/injection, schedule: Q01DX009 (ip), vehicle: saline 108 % of control | dose: 12.5 mg/kg/injection, schedule: Q04DX003 (ip), vehicle: saline 98 % of control | dose: 25.0 mg/kg/injection, schedule: Q01DX009 (ip), vehicle: saline 97 % of control | dose: 25.0 mg/kg/injection, schedule: Q04DX003 (ip), vehicle: saline 102 % of control | dose: 50.0 mg/kg/injection, schedule: Q04DX003 (ip), vehicle: saline 98 % of control

CC1(C2CCN(Cc3ccccc3)CC2)OCCO1
inactive: dose: 37.5 mg/kg/injection, schedule: Q04DX003 (ip), vehicle: saline 100 % of control | dose: 75.0 mg/kg/injection, schedule: Q04DX003 (ip), vehicle: saline 100 % of control | dose: 150.0 mg/kg/injection, schedule: Q04DX003 (ip), vehicle: saline 101 % of control

O=c1[nH]c(-c2ccccc2)nc(-c2ccccc2)c1CCO
inactive: dose: 100.0 mg/kg/injection, schedule: Q01DX009 (ip), vehicle: saline with Tween-80 92 % of control | dose: 200.0 mg/kg/injection, schedule: Q01DX009 (ip), vehicle: saline with Tween-80 86 % of control | dose: 400.0 mg/kg/injection, schedule: Q01DX009 (ip), vehicle: saline with Tween-80 91 % of control

COc1ccc(NS(=O)c2ccc(Oc3ccccc3)cc2)cc1 (stereo not drawn)
inactive: dose: 25.6 mg/kg/injection, schedule: Q04DX002 (ip), vehicle: saline with Tween-80 106 % of control | dose: 64.0 mg/kg/injection, schedule: Q04DX002 (ip), vehicle: saline with Tween-80 112 % of control | dose: 160.0 mg/kg/injection, schedule: Q04DX002 (ip), vehicle: saline with Tween-80 101 % of control | dose: 400.0 mg/kg/injection, schedule: Q04DX002 (ip), vehicle: saline with Tween-80 93 % of control

CS(=O)(=O)c1ccc(F)c([N+](=O)[O-])c1
inactive: dose: 25.0 mg/kg/injection, schedule: Q04DX003 (ip), vehicle: Klucel (hydroxypropylcellulose) (HPC) 92 % of control | dose: 50.0 mg/kg/injection, schedule: Q04DX003 (ip), vehicle: Klucel (hydroxypropylcellulose) (HPC) 92 % of control | [2] 95 % of control

COc1cc2c(cc1OC)N=Cc1cccn1C2
inactive: [7] 94 % of control | dose: 50.0 mg/kg/injection, schedule: Q04DX002 (ip), vehicle: saline with Tween-80 97 % of control | dose: 100.0 mg/kg/injection, schedule: Q04DX002 (ip), vehicle: saline with Tween-80 90 % of control

O=C(Nc1ccc(Br)cc1)Nc1ccccc1Cl
inactive: dose: 100.0 mg/kg/injection, schedule: Q04DX002 (ip), vehicle: saline + alcohol 100 % of control | dose: 200.0 mg/kg/injection, schedule: Q04DX002 (ip), vehicle: saline + alcohol 94 % of control | dose: 400.0 mg/kg/injection, schedule: Q04DX002 (ip), vehicle: saline + alcohol 96 % of control

CC(C)(C)NC/C(=C\c1ccccc1)C(=O)c1ccccc1
inactive: [12] 98 % of control | [13] 101 % of control | dose: 20.0 mg/kg/injection, schedule: Q01DX001 (ip), vehicle: saline 98 % of control | dose: 25.0 mg/kg/injection, schedule: Q01DX009 (ip), vehicle: Klucel (hydroxypropylcellulose) (HPC) 100 % of control | dose: 40.0 mg/kg/injection, schedule: Q01DX001 (ip), vehicle: saline 93 % of control | dose: 50.0 mg/kg/injection, schedule: Q01DX009 (ip), vehicle: Klucel (hydroxypropylcellulose) (HPC) 98 % of control | dose: 80.0 mg/kg/injection, schedule: Q01DX001 (ip), vehicle: saline 95 % of control | [1] 95 % of control | [2] 94 % of control | [9] 112 % of control | [4] 91 % of control | [6] 96 % of control

CCOC(=O)N1C2OC(C(COC(C)=O)=C2COC(C)=O)N1C(=O)OCC
inactive: dose: 12.5 mg/kg/injection, schedule: Q04DX002 (ip), vehicle: saline 99 % of control | dose: 25.0 mg/kg/injection, schedule: Q04DX002 (ip), vehicle: saline 99 % of control | dose: 50.0 mg/kg/injection, schedule: Q04DX002 (ip), vehicle: saline 99 % of control

O=S(=O)(c1ccccc1)N1CCOC1=S
inactive: dose: 100.0 mg/kg/injection, schedule: Q04DX003 (ip), vehicle: acetone 93 % of control | dose: 200.0 mg/kg/injection, schedule: Q04DX003 (ip), vehicle: acetone 101 % of control | dose: 400.0 mg/kg/injection, schedule: Q04DX003 (ip), vehicle: acetone 93 % of control
